Test in all cases: SILAC proteomics / in-gel fluorescence, competition of probe 13-t labeling by 3a
Test [1] has as its target T1, proteins of HEK293T cells transiently overexpressing caspase-6 (Homo sapiens, UniProt P30041).
T1 sequence (P30041 1-224): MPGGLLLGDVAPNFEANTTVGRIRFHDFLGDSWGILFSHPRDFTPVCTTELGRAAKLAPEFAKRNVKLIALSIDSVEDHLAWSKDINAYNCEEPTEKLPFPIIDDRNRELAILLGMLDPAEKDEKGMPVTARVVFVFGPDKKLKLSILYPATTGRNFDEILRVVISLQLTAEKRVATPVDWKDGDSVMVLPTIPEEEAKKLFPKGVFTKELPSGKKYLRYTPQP
As to conditions: Comp; protein PRDX6 P30041.

Test [2] deals with T2, proteins of HEK293T cells transiently overexpressing caspase-6 (Homo sapiens, UniProt Q99832).
T2 sequence (Q99832 1-543): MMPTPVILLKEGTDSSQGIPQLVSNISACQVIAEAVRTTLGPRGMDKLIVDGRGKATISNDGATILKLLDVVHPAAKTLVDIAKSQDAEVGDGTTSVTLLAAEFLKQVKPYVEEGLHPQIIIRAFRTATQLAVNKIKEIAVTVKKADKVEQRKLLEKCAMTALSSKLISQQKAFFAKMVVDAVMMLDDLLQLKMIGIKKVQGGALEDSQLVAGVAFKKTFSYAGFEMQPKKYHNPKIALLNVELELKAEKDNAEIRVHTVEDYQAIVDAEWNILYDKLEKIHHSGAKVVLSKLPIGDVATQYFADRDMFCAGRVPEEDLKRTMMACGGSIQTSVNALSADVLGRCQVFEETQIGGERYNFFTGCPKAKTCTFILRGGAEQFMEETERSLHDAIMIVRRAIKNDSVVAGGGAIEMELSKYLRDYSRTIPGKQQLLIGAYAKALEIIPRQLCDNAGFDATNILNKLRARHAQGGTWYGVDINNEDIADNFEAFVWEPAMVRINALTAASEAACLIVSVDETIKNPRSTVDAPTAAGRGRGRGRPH
The note with it: Comp; protein CCT7 Q99832.

The target in test [3] is proteins of HEK293T cells transiently overexpressing caspase-6 (Homo sapiens, UniProt P31943). As to conditions: Comp; protein HNRNPH1 P31943.
Test [4] has as its target proteins of HEK293T cells transiently overexpressing caspase-6 (Homo sapiens, UniProt P34897). As to conditions: Comp; protein SHMT2 P34897.
Test [5] concerns the target proteins of HEK293T cells transiently overexpressing caspase-6 (Homo sapiens, UniProt P05141). The note with it: Comp; protein SLC25A5 P05141.
For test [6], the target named is proteins of HEK293T cells transiently overexpressing caspase-6 (Homo sapiens, UniProt P46777). As to conditions: Comp; protein RPL5 P46777.
Test [7] deals with T3, proteins of HEK293T cells transiently overexpressing caspase-6 (Homo sapiens, UniProt P04075).
T3 sequence (P04075 1-364): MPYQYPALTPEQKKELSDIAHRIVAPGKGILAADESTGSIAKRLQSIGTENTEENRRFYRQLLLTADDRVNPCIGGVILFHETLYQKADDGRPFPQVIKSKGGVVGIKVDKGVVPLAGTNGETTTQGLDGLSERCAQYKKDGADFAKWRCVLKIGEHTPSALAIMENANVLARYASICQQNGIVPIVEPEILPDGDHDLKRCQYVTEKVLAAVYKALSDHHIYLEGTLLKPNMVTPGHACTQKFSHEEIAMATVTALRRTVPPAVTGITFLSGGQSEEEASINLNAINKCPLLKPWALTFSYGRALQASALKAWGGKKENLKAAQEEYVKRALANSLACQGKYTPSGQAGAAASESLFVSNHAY
As to conditions: Comp; protein ALDOA P04075.

Test [8] deals with proteins of HEK293T cells transiently overexpressing caspase-6 (Homo sapiens, UniProt P08238). As to conditions: Comp; protein HSP90AB1 P08238.
Test [9] addresses proteins of HEK293T cells transiently overexpressing caspase-6 (Homo sapiens, UniProt P62888). The note with it: Comp; protein RPL30 P62888.
For test [10], the target named is T4, proteins of HEK293T cells transiently overexpressing caspase-6 (Homo sapiens, UniProt P50990).
T4 sequence (P50990 1-548): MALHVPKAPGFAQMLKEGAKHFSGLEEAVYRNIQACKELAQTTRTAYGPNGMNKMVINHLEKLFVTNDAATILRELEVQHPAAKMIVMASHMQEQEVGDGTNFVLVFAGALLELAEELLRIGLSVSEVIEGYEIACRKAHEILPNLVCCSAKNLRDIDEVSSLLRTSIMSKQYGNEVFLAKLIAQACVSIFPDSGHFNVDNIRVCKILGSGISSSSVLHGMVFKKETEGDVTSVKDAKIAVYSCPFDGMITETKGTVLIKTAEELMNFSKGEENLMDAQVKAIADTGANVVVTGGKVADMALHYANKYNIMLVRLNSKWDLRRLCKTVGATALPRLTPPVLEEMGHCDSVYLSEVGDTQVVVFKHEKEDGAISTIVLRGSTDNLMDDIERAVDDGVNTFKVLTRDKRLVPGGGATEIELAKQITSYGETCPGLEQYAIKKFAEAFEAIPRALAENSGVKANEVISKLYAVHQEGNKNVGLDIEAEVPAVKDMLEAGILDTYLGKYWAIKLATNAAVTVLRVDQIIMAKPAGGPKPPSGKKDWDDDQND
As to conditions: Comp; protein CCT8 P50990.

Sequence of proteins of HEK293T cells transiently overexpressing caspase-6 (Homo sapiens, UniProt P34897) (P34897 30-504): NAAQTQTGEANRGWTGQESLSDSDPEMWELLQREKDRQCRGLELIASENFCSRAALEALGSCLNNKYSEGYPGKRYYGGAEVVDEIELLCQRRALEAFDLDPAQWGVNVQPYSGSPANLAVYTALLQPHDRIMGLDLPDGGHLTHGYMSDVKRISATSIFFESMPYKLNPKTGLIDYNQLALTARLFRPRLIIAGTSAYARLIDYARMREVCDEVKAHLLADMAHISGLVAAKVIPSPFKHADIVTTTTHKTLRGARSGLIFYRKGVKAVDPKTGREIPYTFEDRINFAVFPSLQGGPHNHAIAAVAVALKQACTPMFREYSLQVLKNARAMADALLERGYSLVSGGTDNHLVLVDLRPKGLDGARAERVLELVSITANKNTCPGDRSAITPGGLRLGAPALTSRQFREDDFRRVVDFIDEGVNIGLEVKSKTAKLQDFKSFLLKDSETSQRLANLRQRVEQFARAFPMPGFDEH
Sequence of proteins of HEK293T cells transiently overexpressing caspase-6 (Homo sapiens, UniProt P05141) (P05141 whole entry): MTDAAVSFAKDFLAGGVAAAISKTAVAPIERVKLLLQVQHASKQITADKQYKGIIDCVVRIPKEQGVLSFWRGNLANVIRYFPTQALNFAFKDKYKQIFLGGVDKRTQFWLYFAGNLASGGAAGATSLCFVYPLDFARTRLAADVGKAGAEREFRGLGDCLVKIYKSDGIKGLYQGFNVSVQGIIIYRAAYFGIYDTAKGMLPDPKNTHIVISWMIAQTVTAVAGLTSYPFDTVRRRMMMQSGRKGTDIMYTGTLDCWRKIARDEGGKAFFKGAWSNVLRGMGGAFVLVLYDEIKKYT
Sequence of proteins of HEK293T cells transiently overexpressing caspase-6 (Homo sapiens, UniProt P31943) (P31943 whole entry): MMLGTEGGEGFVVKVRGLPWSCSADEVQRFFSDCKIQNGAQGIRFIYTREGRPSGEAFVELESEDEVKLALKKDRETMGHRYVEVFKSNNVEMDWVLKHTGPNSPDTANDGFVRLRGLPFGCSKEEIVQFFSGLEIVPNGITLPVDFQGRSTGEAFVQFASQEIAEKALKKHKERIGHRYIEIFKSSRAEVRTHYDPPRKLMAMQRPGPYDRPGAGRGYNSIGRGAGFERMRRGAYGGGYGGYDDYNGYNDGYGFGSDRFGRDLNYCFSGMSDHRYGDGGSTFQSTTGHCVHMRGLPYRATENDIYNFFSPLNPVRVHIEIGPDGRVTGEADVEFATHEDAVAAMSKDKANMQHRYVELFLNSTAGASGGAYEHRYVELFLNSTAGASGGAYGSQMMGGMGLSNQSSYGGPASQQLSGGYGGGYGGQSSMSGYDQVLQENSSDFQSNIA
Sequence of proteins of HEK293T cells transiently overexpressing caspase-6 (Homo sapiens, UniProt P08238) (P08238 whole entry): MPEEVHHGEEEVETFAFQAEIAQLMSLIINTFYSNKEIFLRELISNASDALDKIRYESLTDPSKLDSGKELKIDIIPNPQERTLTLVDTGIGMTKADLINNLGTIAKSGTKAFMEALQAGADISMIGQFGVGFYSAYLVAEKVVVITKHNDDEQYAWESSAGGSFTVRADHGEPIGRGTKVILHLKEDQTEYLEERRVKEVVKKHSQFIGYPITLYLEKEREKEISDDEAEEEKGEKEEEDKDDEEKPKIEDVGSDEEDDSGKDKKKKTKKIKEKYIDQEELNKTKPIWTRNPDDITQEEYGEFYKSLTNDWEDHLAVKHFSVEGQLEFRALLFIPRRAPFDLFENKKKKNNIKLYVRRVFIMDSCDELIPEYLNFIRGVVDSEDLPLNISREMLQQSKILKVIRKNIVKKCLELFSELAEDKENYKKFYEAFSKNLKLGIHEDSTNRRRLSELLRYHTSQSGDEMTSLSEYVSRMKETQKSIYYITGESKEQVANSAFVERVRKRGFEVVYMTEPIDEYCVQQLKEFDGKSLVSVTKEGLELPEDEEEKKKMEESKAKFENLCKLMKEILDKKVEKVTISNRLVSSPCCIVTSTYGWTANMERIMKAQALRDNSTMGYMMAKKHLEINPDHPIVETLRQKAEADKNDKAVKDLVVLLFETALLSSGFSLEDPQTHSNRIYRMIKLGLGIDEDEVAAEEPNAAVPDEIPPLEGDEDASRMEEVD

On to `C=CS(=O)(=O)N1C[C@H](C(=O)Nc2ccc(OC(F)(F)F)cc2)C[C@@H](c2ccccc2)C1` [3a], for which the enrich.exp.med was 0.6066 in test [1]; 0.6137 in test [2]; 0.7263 in [3]; 0.5876 in test [4]; 0.6101 in [5]; 0.7402 in test [6]. Also, the enrich.exp.med is recorded as 0.6768 in test [7], 0.6024 in test [8], 0.6036 in test [9] and 0.6038 in test [10].

These data come from PMC10176470, “Engaging a Non-catalytic Cysteine Residue Drives Potent and Selective Inhibition of Caspase-6” (Journal of the American Chemical Society, 2023).
